Key:
[1] = target: T1, human FGFR3 V555M enzyme (cytoplasmic domain carrying V555M mutation) (Homo sapiens, UniProt P22607, V555M); experiment: FGFR3 V555M mobility shift assay (enzymatic assay); format: biochemical; conditions: 30 μM ATP, 45 minutes at 30° C., Caliper EZ reader II
T1 construct: human FGFR3 V555M enzyme (cytoplasmic domain carrying V555M mutation, from Carna Biosciences); purchased Carna Biosciences
In short: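 Cytoplasmic-domain FGFR3 V555M (0.04 ng/μL) with 30 μM ATP and 1 μM FL-peptide 30 in HEPES pH 7.4/MgCl2/Brij35/DTT, 1% DMSO, 45 min at 30 °C, EDTA-stopped. Mobility-shift read of substrate-product conversion; 10-point 4× dilution from 10 μM fitted for IC50/pIC50.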

[2] = target: T2, human FGFR3 wild type enzyme (cytoplasmic domain) (Homo sapiens, UniProt P22607); experiment: FGFR3 wild type mobility shift assay (enzymatic assay); format: biochemical; conditions: 75 μM ATP, 50 minutes at 30° C., Caliper EZ reader II
T2 construct: human FGFR3 wild type enzyme (cytoplasmic domain, from Carna Biosciences); purchased Carna Biosciences
T2 sequence (P22607 397-806 limits assumed): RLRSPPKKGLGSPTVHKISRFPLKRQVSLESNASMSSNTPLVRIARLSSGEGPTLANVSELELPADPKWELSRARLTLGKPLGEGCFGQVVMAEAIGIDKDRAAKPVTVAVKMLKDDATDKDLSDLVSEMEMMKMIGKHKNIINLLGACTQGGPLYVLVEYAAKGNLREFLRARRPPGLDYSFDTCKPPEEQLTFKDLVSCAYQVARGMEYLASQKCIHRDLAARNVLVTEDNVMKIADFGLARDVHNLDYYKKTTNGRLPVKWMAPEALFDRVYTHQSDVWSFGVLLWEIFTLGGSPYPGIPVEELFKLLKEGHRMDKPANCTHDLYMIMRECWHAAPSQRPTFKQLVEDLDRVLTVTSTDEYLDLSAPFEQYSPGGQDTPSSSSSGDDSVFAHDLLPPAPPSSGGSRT
In short: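 Cytoplasmic domain of human wild-type FGFR3 (0.04 ng/μL) with 75 μM ATP and 1 μM FL-peptide 30, pH 7.4 HEPES/MgCl2 buffer, 1% DMSO, 50 min at 30 °C, EDTA-stopped. Substrate-product conversion read by mobility shift. IC50, pIC50 and Hill slope from 10-point 4-fold dilutions starting at 10 μM.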

[3] = target: T3, NIH/3T3 cells overexpressing FGFR3 V555M-TACC3 fusion protein (Homo sapiens, UniProt P22607, V555M, cells depend on it); experiment: NIH/3T3 FGFR3 V555M-TACC3 cell proliferation assay; format: cell-based; conditions: 72-hr incubation, CellTiter Glo, starting with 10 μM; read-out: NIH/3T3 FGFR3 V555M-TACC3 CTG (IC50)
T3 construct: NIH/3T3 FGFR3 V555M-TACC3 CTG (IC50); other: 72-hr incubation, CellTiter Glo, starting with 10 μM; fused on or other part: Q9Y6A5 (Transforming acidic coiled-coil-containing protein 3)
T3 sequence (P22607 whole entry V555M, the tested form may be a part): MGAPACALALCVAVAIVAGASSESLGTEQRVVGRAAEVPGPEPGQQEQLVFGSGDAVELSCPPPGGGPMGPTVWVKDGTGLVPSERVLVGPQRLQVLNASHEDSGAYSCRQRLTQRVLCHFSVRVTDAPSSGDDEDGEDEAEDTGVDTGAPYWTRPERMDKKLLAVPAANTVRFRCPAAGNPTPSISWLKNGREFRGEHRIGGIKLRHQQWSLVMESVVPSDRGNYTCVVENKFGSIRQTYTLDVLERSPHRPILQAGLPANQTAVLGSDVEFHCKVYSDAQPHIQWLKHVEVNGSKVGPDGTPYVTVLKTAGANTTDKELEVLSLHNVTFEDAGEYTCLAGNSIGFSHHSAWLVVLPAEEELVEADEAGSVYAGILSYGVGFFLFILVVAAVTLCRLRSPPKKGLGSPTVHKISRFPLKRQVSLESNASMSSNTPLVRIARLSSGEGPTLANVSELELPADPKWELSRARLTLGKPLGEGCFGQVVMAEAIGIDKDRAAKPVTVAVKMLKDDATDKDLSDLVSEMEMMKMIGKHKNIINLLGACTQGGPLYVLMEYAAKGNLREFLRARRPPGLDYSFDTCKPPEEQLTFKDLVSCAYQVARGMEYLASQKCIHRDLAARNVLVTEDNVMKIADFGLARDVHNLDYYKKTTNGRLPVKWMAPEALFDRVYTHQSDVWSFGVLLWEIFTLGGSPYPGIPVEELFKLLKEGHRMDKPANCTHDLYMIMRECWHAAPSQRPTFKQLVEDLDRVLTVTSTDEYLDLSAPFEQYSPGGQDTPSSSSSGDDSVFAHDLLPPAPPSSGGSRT
In short: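 NIH/3T3 cells overexpressing FGFR3 V555M-TACC3 fusion, 30,000/well in DMEM/10% FBS, treated for 72 h at 37 °C with 9 doses (4× dilutions from 10 μM top, 0.1% DMSO). CellTiter-Glo luminescence normalised to % survival; IC50, pIC50 and Hill slope from concentration-response fits.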

[4] = target: T4, NIH/3T3 cells overexpressing FGFR3 WT-TACC3 fusion protein (Homo sapiens, UniProt P22607); experiment: NIH/3T3 FGFR3 WT-TACC3 cell proliferation assay; format: cell-based; conditions: 72-hr incubation, CellTiter Glo, starting with 10 μM; read-out: NIH/3T3 FGFR3 WT-TACC3 CTG (IC50)
T4 construct: NIH/3T3 FGFR3 WT-TACC3 CTG (IC50); other: 72-hr incubation, CellTiter Glo, starting with 10 μM; fused on or other part: Q9Y6A5 (Transforming acidic coiled-coil-containing protein 3)
T4 sequence (P22607 whole entry, change not shown, the tested form may be a part): as the sequence (P22607 whole entry V555M, the tested form may be a part) above, with M555V counted along it
In short: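 Cells seeded overnight, then exposed 72 h at 37 °C to compound in 9-point 4-fold dilutions from 10 μM (0.1% DMSO final). Viability read by CellTiter-Glo luminescence, normalized to survival %; IC50, pIC50 and Hill slope from concentration-response fit.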

[5] = target: T5, human FGFR3 V555L enzyme (cytoplasmic domain carrying V555L mutation) (Homo sapiens, UniProt P22607, V555L); experiment: FGFR3 V555L mobility shift assay (enzymatic assay); format: biochemical; conditions: 40 μM ATP, 50 minutes at 30° C., Caliper EZ reader II
T5 construct: human FGFR3 V555L enzyme (cytoplasmic domain carrying V555L mutation, from Carna Biosciences); purchased Carna Biosciences
T5 sequence (P22607 397-806 V555L limits assumed): as the sequence (P22607 397-806 limits assumed) above, with V159L counted along it
Protocol: FGFR3 V555L Mobility Shift Assay (Enzymatic Assay)
In a final reaction volume of 25 μL, 0.04 ng/μL human FGFR3 V555L enzyme (cytoplasmic domain carrying V555L mutation, from Carna Biosciences) was incubated with 40 μM ATP, 1 μM FL-peptide 30 substrate and 250 nL of testing compound (1% DMSO final) in assay buffer (100 mM HEPES pH 7.4, 10 mM MgCl2, 0.003% Brij35, 1 mM DTT). After incubation for 50 minutes at 30° C. the reaction was stopped with 10 μL of 0.5M EDTA pH 8.0, and then 25 μL of reaction mixture was transferred to reading plate and measured on Caliper EZ reader II. The substrate-product conversion rate was used as raw data for normalization and concentration-response curve (10 dose points with 4× serial dilution, starting with 10 μM) was plotted using Prism to calculate IC50 (M), pIC50 (−log IC50) and HillSlope value.

[6] = tested on: NIH/3T3 cells transfected with the same control vector; experiment: NIH/3T3 mock cell proliferation assay (counter assay, general toxicity); format: cell-based; conditions: Mus musculus, NIH3T3, 72 h, 72-hr incubation, CellTiter Glo, starting with 30 μM; counter assay for general toxicity; read-out: NIH/3T3 MOCK CTG (IC50)
In short: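 Control-vector NIH/3T3 cells, 30,000/well in DMEM with 10% FBS, exposed 72 h at 37 °C to compound (9 points, 3-fold from 30 μM, 0.3% DMSO). CellTiter-Glo luminescence normalized to survival %; IC50, pIC50 and Hill slope from concentration-response fit.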

T1 sequence (P22607 397-806 V555M limits assumed): as the sequence (P22607 397-806 limits assumed) above, with V159M counted along it

| IC50 [1] [nM] | IC50 [2] [nM] | GI50 [3] [nM] | GI50 [4] [nM] | IC50 [5] [nM] | SMILES | IC50 [6] [nM] |
| --- | --- | --- | --- | --- | --- | --- |
| 0.177 | 0.281 | 5.34 | 7.19 | 0.617 | CCC(Nc1c(-c2nc3ccc(N4CCOCC4)cc3[nH]2)c(=O)[nH]c2ccccc12)c1ncccn1 (single isomer, unassigned) [Compound 30a, (S*)-3-(6-morpholino-1H-benzo[d]imidazol-2-yl)-4-((1-(pyrimidin-2-yl)propyl)amino)quinolin-2(1H)-one] | 2910 |
| 0.237 | 0.595 | 6.41 | 9.24 | 0.63 | O=c1[nH]c2ccccc2c(NC(c2ncccn2)C2CC2)c1-c1nc2ccc(N3CCOCC3)cc2[nH]1 (single isomer, unassigned) [Compound 33a, (S*)-4-((cyclopropyl(pyrimidin-2-yl)methyl)amino)-3-(6-morpholino-1H-benzo[d]imidazol-2-yl)quinolin-2(1H)-one] | 1080 |
| 0.171 | 0.368 | 5.75 | 16.5 | 0.364 | CC(C)C(Nc1c(-c2nc3ccc(N4CCOCC4)cc3[nH]2)c(=O)[nH]c2ccccc12)c1ncccn1 (single isomer, unassigned) [Compound 32a, (S*)-4-((2-methyl-1-(pyrimidin-2-yl)propyl)amino)-3-(6-morpholino-1H-benzo[d]imidazol-2-yl)quinolin-2(1H)-one] | 2610 |
| 0.193 | 0.377 | 8.19 | 5.93 | 0.246 | C[C@H](Nc1c(-c2nc3ccc(N4CCN(C)CC4)cc3[nH]2)c(=O)[nH]c2ccccc12)c1ccccn1 [Compound 65, (S)-3-(6-(4-methylpiperazin-1-yl)-1H-benzo[d]imidazol-2-yl)-4-((1-(pyridin-2-yl)-ethyl)amino)quinolin-2(1H)-one] | 165 |
| 1.65 | 0.709 | 51.4 | – | 1.39 | C[C@H](Nc1c(-c2nc3ccc(N4CCN(C)CC4)cc3[nH]2)c(=O)[nH]c2cc(F)ccc12)c1ccccn1 [Compound 63, (S)-7-Fluoro-3-(6-(4-methylpiperazin-1-yl)-1H-benzo[d]imidazol-2-yl)-4-((1-(pyridin-2-yl)ethyl)amino)quinolin-2(1H)-one] | 637 |

Source: US11384075B2, “Quinolinone compounds” (Janssen Pharmaceutica NV, priority 2017, dated 2022)
